Measurements: PubChem BioAssay AID179 (DTP/NCI, 2004)
Activity calls are given as the source filed them.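 The calls were made as follows: active = compounds giving half or more protection of infected cells from virus-caused growth loss, again on retest; inactive = the rest.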

System: CEM cells HIV-1 protection, formazan growth assay
Assay: NCI AIDS Antiviral Assay
Settings: for IC50: measured here: growth of uninfected CEM cells
How it was run: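 CEM (human) cells, HIV-1 infected vs uninfected, 5-point dosing, formazan growth read-out. Retest threshold 50% protection.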

c1c2c(cc3c1OCO3)C(c1onc3cc4c(cc13)OCO4)=NCC2
outcome: inactive

C1=C(c2ccccc2)CN(c2ccccc2)OC1
EC50: > 57.5 µM | IC50: > 57.5 µM

Cc1ccc(S(=O)(=O)NC2C(=O)c3ccccc3C(=O)C2n2cnc3ccccc32)cc1 (centres undefined)
EC50: > 200 µM | IC50: 42.7 µM

COc1cc(C(=O)CC2OC(=O)C(Cl)=C2Cl)ccc1Cl (centres undefined)
EC50: > 741 µM | IC50: 145 µM

N#CC(Sc1ccccc1)c1ccccc1 (centres undefined)
EC50: > 44.7 µM | IC50: > 44.7 µM

NC(=NCC(=O)O)c1ncn(C2OC(CO)C(O)C2O)n1 (centres undefined)
outcome: inactive

O=C1CC(c2ccc(Cl)cc2)C2(C(=O)NC(=O)NC2=O)C(c2ccc(Cl)cc2)C1 (centres undefined)
EC50: > 75.9 µM | IC50: 34.7 µM

[Ni+2].[O-]/C(=N\N=C/c1ccccc1F)c1ccncc1.[O-]/C(=N\N=C\c1ccccc1F)c1ccncc1
EC50: > 100 µM | IC50: > 100 µM

O=c1c2c(-c3ccccc3)onc2n(-c2ccccc2)c(=O)n1-c1ccccc1
EC50: > 200 µM | IC50: 10.5 µM

COc1cccc2c(NCCCN(C)C)c3c([N+](=O)[O-])ccc(OC)c3nc12
EC50: > 2 µM | IC50: 0.257 µM

O=Nc1c[nH]c(=O)[nH]c1=O
EC50: > 200 µM | IC50: > 200 µM

O=c1[nH]c(=S)[nH]c2nc[nH]c12
EC50: > 200 µM | IC50: > 200 µM

COC(=O)c1cc(=O)nc(N/N=C/c2ccccc2O)s1
EC50: > 85.1 µM | IC50: 57.5 µM

Cc1ccc(S(=O)Cc2ccc(C(=O)O)cc2[N+](=O)[O-])cc1 (centres undefined)
outcome: inactive

O=C1NC2(CCCCC2)OC12CCCCC2
EC50: > 6.46 µM | IC50: > 6.46 µM

Cc1ccnc(NS(=O)(=O)c2ccc(N=Cc3ccccc3O)cc2)n1
EC50: > 200 µM | IC50: > 200 µM

Nc1c(Cl)ncnc1N[C@@H]1C[C@H]1CO
EC50: > 200 µM | IC50: > 200 µM

Cn1c(=O)c2c(nc(N/N=C/c3cccc(Br)c3)n2C)n(C)c1=O
EC50: > 200 µM | IC50: > 200 µM

O=c1oc2c(-c3ccccc3)n[nH]c(=O)c2c2c1CCCC2
EC50: > 170 µM | IC50: > 170 µM

O=C1C2C3C4C1C1C2[C@H](OCc2ccccc2)C3C1[C@H]4OCc1ccccc1 (some centres undefined)
EC50: > 200 µM | IC50: 42.7 µM

C/C(=C1/CCC/C(=C(/C)c2ccccc2)C1=O)c1ccccc1
EC50: > 9.12 µM | IC50: > 9.12 µM

COC12C(COC(N)=O)C3=C(C(=O)C(C)=C(N)C3=O)N1CC1C2N1C (centres undefined)
EC50: > 724 µM | IC50: 0.417 µM

CC(C)CC(=O)N1CCN(C(=O)CC(C)C)c2ccccc21
EC50: > 603 µM | IC50: 589 µM

O=[N+]([O-])c1cccnc1NCC1(CO)CC(Cc2ccccc2)C1 (centres undefined)
EC50: > 200 µM | IC50: 110 µM

CC1CCN(C2=CC(=O)C(=O)c3cccnc32)CC1
outcome: inactive

CCCCCCCCCCCCCCCCNCCCS(=O)(=O)O
EC50: > 200 µM | IC50: 3.89 µM

NCCCNc1ccc2c(c1)[n+]([O-])c1ccccc1[n+]2[O-]
EC50: > 437 µM | IC50: 10.2 µM

CC(C)C1N(N2C(=O)CS(=O)(=O)C2C(C)C)C(=O)CS1(=O)=O (centres undefined)
EC50: > 200 µM | IC50: > 200 µM

N#C/C(C(=N)c1ccccc1)=C1\SS/C(=C(\C#N)C(=N)c2ccccc2)S1
EC50: > 200 µM | IC50: 6.03 µM

Cc1cc(=O)oc2c3c(cc(OCc4ccccc4)c12)OC(C)(C)[C@H](OC(=O)C12CCC(C)(C(=O)O1)C2(C)C)[C@@H]3OC(=O)C12CCC(C)(C(=O)O1)C2(C)C (some centres undefined)
EC50: > 200 µM | IC50: 44.7 µM

C[n+]1[se]c2ccccc2c1Cl
EC50: > 186 µM | IC50: 7.24 µM

Nc1nnc(N)n1NC(=O)C(=O)Nc1ccc([N+](=O)[O-])cc1
EC50: > 151 µM | IC50: > 151 µM

CCOC(=O)Cc1nnc2n(-c3ccccc3)c(=O)c3ccccc3n12
EC50: > 100 µM | IC50: > 100 µM

CC(C)OC1NC(=O)Oc2ccccc21 (centres undefined)
EC50: > 200 µM | IC50: 132 µM

COc1cc2c3c(c1)nnn3C(=O)C(C)S2 (centres undefined)
outcome: inactive

COc1ccc(/C=C2\C=Cc3ccccc32)cc1OC
EC50: > 200 µM | IC50: 33.9 µM

C[N+](C)(C)CCOP(=O)([O-])OCCNC(=O)c1ccc2ccccc2c1
EC50: > 200 µM | IC50: > 200 µM
